In patent US10301317B2, “Inhibitors of ERK and methods of use” (Kura Oncology, Inc., priority 2013, dated 2019) one finds IC50 data, which are given here for 40 compounds.

Common to all, as to format: cell-based
Test [1] has as its system phospho-p90 RSK (RSK1 Thr359/Ser363) in A375 (Braf V600E) cells. The test is described as follows: Phospho-p90 RSK ELISA using A375 (Braf V600E) cells. The conditions noted are these: Homo sapiens, A-375, 2 hours compound treatment, read-out: Cellular Phospho-p90RSK IC50. (In general: In an ELISA, binding on a coated surface is turned into a signal by an enzyme label.)
The test system of test [2] is A375 cells. The test is described as follows: Tumor cell line proliferation assay (CellTiter Glo), A375. As to conditions: Homo sapiens, A-375, 96 h, read-out: A375 (V599E) Cell Proliferation IC50. In general terms: Cellular ATP, detected with luciferase, serves as a proxy for viable cell number.
Test [3] concerns H358 (Kras, G12C) cells. The test is described as follows: Tumor cell line proliferation assay (CellTiter Glo), H358. As to conditions: Homo sapiens, NCI-H358, 96 hours.
Test [4] deals with WM-266-4 cells. Briefly: Tumor cell line proliferation assay (CellTiter Glo), WM-266-4. The conditions noted are these: Homo sapiens, 96 hours, read-out: WM-266-4 (V599D) Cell Proliferation IC50.

Each structure is given as a SMILES string. A value given as a limit tells only on which side of the number the result lay.

Regarding `O=C1Nc2cc3[nH]nc(-c4ccncc4)c3cc2CN1Cc1ccccc1` [Example 1, 6-benzyl-3-(pyridin-4-yl)-1,5,6,8-tetrahydro-7H-pyrazolo[4,3-g]quinazolin-7-one], the IC50 in test [1], in test [2], in test [3] and in test [4] was at most 250 nM each time.

With `Cc1cc(-c2n[nH]c3cc4c(cc23)CN([C@H](C)c2ccccc2)C(=O)N4)ccn1` [Example 2, (R)-3-(2-methylpyridin-4-yl)-6-(1-phenylethyl)-5,6-dihydro-1H-pyrazolo[4,3-g]quinazolin-7(8H)-one], the IC50 was at most 250 nM in test [1], 250 to 1000 nM in test [2] and 250 to 1000 nM in test [4].

For the compound `O=C1Nc2cc3[nH]nc(-c4ccncc4)c3cc2CN1Cc1cccc(Cl)c1` [Example 3], the IC50 in test [1], in test [2] and in test [4] was at most 250 nM in each case.

For `Cc1cc(-c2n[nH]c3cc4c(cc23)CN(Cc2cccc(Cl)c2)C(=O)N4)ccn1` [Example 4], the IC50 in test [1], in test [2] and in test [4] was at most 250 nM each time.

As for `Cc1cc(-c2n[nH]c3cc4c(cc23)CN([C@H](C)c2ccc(F)cc2)C(=O)N4)ccn1` [Example 5], the IC50 in test [1] is 250 to 1000 nM; in test [2], above 1000 nM; in test [4], 250 to 1000 nM.

In the case of `Cc1cc(-c2n[nH]c3cc4c(cc23)CN(Cc2cc(F)cc(F)c2)C(=O)N4)ccn1` [Example 7], the values for the IC50 in test [1], in test [2] and in test [4] were at most 250 nM, 250 to 1000 nM and at most 250 nM, respectively.

As for `Cc1cc(-c2n[nH]c3cc4c(cc23)CN(Cc2ccc(F)c(Cl)c2)C(=O)N4)ccn1` [Example 8], the IC50 in test [1] is at most 250 nM; in test [2] it was 250 to 1000 nM; in test [4], at most 250 nM.

For the compound `COc1ncccc1CN1Cc2cc3c(-c4ccnc(C)c4)n[nH]c3cc2NC1=O` [Example 9], the figures for the IC50 in test [1], in test [2] and in test [4] were 250 to 1000 nM, above 1000 nM and 250 to 1000 nM, respectively.

As to `COc1ccc(CN2Cc3cc4c(-c5ccnc(C)c5)n[nH]c4cc3NC2=O)cc1` [Example 10], the IC50 is at most 250 nM in test [1], 250 to 1000 nM in test [2] and at most 250 nM in test [4].

As to `Cc1cc(-c2n[nH]c3cc4c(cc23)CN(Cc2ccc(F)cc2F)C(=O)N4)ccn1` [Example 11], the IC50 in test [1] is at most 250 nM; in test [2] it was 250 to 1000 nM; in test [4] it was at most 250 nM.

Take `Cc1cc(-c2n[nH]c3cc4c(cc23)CN(Cc2ccc(C(F)(F)F)cc2)C(=O)N4)ccn1` [Example 12]: the IC50 is at most 250 nM in test [1], 250 to 1000 nM in test [2] and at most 250 nM in test [4].

`Cc1cc(-c2n[nH]c3cc4c(cc23)CN(Cc2ccc(F)c(F)c2)C(=O)N4)ccn1` [Example 13]: the IC50 was at most 250 nM in test [1], 250 to 1000 nM in test [2] and 250 to 1000 nM in test [4].

For the compound `Cc1cc(-c2n[nH]c3cc4c(cc23)CN(Cc2ccc(Cl)cc2)C(=O)N4)ccn1` [Example 14], the IC50 is at most 250 nM in test [1], 250 to 1000 nM in test [2] and 250 to 1000 nM in test [4].

With `Cc1cc(-c2n[nH]c3cc4[nH]c(=O)n(Cc5ccc(F)c(Cl)c5)c(=O)c4cc23)ccn1` [Example 15], the IC50 was 250 to 1000 nM in test [1], above 1000 nM in test [2] and above 1000 nM in test [4].

Consider `Cc1cc(-c2n[nH]c3cc4c(cc23)CN(C2(c3ccc(F)cc3)CC2)C(=O)N4)ccn1` [Example 17], for which the IC50 in test [1] was 250 to 1000 nM; in test [2] it was above 1000 nM; in test [4] it was above 1000 nM.

For the compound `Cc1cc(-c2n[nH]c3cc4c(cc23)CN(CCc2ccc(F)cc2)C(=O)N4)ccn1` [Example 18], the IC50 in test [1] is at most 250 nM; in test [2], 250 to 1000 nM; in test [4], 250 to 1000 nM.

As for `Cc1cc(-c2n[nH]c3cc4[nH]c(=O)n(Cc5ccccc5)c4cc23)ccn1` [Example 19], the IC50 in test [1] was 250 to 1000 nM; in test [2], above 1000 nM; in test [4], above 1000 nM.

Consider `Cc1cc(-c2n[nH]c3cc4[nH]c(=O)n(CCc5ccccc5)c4cc23)ccn1` [Example 20], for which the IC50 in test [1], in test [2] and in test [4] was above 1000 nM each time.

Take `Cc1cc(-c2n[nH]c3cc4[nH]c(=O)c(Cc5ccc(F)cc5)cc4cc23)ccn1` [Example 21]: the IC50 in test [1], in test [2] and in test [4] was 250 to 1000 nM each time.

With `Cc1cc(-c2n[nH]c3cc4[nH]c(=O)c(C(C)c5ccccc5)cc4cc23)ccn1` (stereo not drawn) [Example 22], the IC50 in test [1], in test [2] and in test [4] was at most 250 nM each time.

`Cc1cc(-c2n[nH]c3cc4c(cc23)CN([C@H](C)c2ccc(C#N)cc2)C(=O)N4)ccn1` [Example 23]: the figures for the IC50 in test [1], in test [2] and in test [4] were at most 250 nM, 250 to 1000 nM and above 1000 nM, respectively.

For `Cc1cc(-c2n[nH]c3cc4[nH]c(=O)n(Cc5cccc(Cl)c5)c(=O)c4cc23)ccn1` [Example 24], the IC50 in test [2] and in test [4] was above 1000 nM in each case.

For the compound `[2H]c1c([2H])c([2H])c(C([2H])([2H])N2CCC[C@@H](N3Cc4cc5c(-c6ccnc(C)c6)n[nH]c5cc4NC3=O)C2)c([2H])c1[2H]` [Example 165], the IC50 in test [1], in test [2] and in test [3] was at most 250 nM in each case.

As for `Cc1cc(-c2n[nH]c3cc4c(cc23)CN([C@@H]2CCCN(c3cccc(Cl)c3)C2)C(=O)N4)ccn1` [Example 174], the results for the IC50 in test [1], in test [2] and in test [3] were at most 250 nM, 250 to 1000 nM and at most 250 nM, respectively.

Take `Cc1cc(-c2n[nH]c3cc4c(cc23)CN([C@@H]2CCCN(CCC(F)(F)F)C2)C(=O)N4)ccn1` [Example 178]: the IC50 in test [1] is at most 250 nM; in test [2], 250 to 1000 nM; in test [3] it was 250 to 1000 nM.

For `Cc1cc(-c2n[nH]c3cc4c(cc23)CN([C@@H]2CCCN(C(C)c3ccc(F)cc3)C2)C(=O)N4)ccn1` (stereo partly drawn) [Example 179], the IC50 is at most 250 nM in test [1], 250 to 1000 nM in test [2] and 250 to 1000 nM in test [3].

Take `Cc1cc(-c2n[nH]c3cc4c(cc23)CN([C@@H]2CCCN(C(C)c3cccc(Cl)c3)C2)C(=O)N4)ccn1` (stereo partly drawn) [Example 180]: the IC50 was at most 250 nM in test [1], 250 to 1000 nM in test [2] and 250 to 1000 nM in test [3].

Consider `Cc1cc(-c2n[nH]c3cc4c(cc23)CC(C(C)c2cccc(Cl)c2)C(=O)N4)ccn1` (stereo not drawn) [Example 181], for which the IC50 in test [1], in test [2] and in test [3] was at most 250 nM each time.

Take `Cc1cc(-c2n[nH]c3cc4c(cc23)CN([C@@H]2CCCN(Cc3ccc(F)c(F)c3)C2)C(=O)N4)ccn1` [Example 190]: the IC50 in test [1] was at most 250 nM; in test [2] it was at most 250 nM; in test [3], 250 to 1000 nM.

Regarding `Cc1cc(-c2n[nH]c3cc4c(cc23)CN([C@@H]2CCCN(CC(F)(F)F)C2)C(=O)N4)ccn1` [Example 193], the IC50 in test [1] was at most 250 nM; in test [2], 250 to 1000 nM; in test [3], 250 to 1000 nM.

Consider `Cc1cc(-c2n[nH]c3cc4c(cc23)CN([C@@H]2CCCN(Cc3ccc(F)cc3F)C2)C(=O)N4)ccn1` [Example 196], for which the IC50 in test [1], in test [2] and in test [3] was at most 250 nM each time.

Turning to `Cc1cc(-c2n[nH]c3cc4c(cc23)CN([C@@H]2CCCN(c3ccc(F)cn3)C2)C(=O)N4)ccn1` [Example 199], the IC50 in test [1] was at most 250 nM; in test [2], 250 to 1000 nM; in test [3], 250 to 1000 nM.

With `Cc1cc(-c2n[nH]c3cc4c(cc23)CN(C2CN(Cc3ccccc3)CC(F)(F)C2)C(=O)N4)ccn1` (stereo not drawn) [Example 200], the IC50 was at most 250 nM in test [1], 250 to 1000 nM in test [2] and 250 to 1000 nM in test [3].

Turning to `Cc1cc(-c2n[nH]c3cc4c(cc23)CN(C2CN(CC3CCCC3)CC(F)(F)C2)C(=O)N4)ccn1` (stereo not drawn) [Example 201], the IC50 in test [1], in test [2] and in test [3] was above 1000 nM in each case.

Take `Cc1cc(-c2n[nH]c3cc4c(cc23)CN(C2CN(Cc3cc(F)cc(F)c3)CC(F)(F)C2)C(=O)N4)ccn1` (stereo not drawn) [Example 202]: the IC50 in test [1], in test [2] and in test [3] was above 1000 nM each time.

Consider `Cc1cc(-c2n[nH]c3cc4c(cc23)CN(C2CCCCC2)C(=O)N4)ccn1` [Example 204], for which the values for the IC50 in test [1], in test [2] and in test [3] were 250 to 1000 nM, 250 to 1000 nM and above 1000 nM, respectively.

Regarding `Cc1cc(-c2n[nH]c3cc4c(cc23)CN(C2CCCC2)C(=O)N4)ccn1` [Example 205], the IC50 is at most 250 nM in test [1], 250 to 1000 nM in test [2] and 250 to 1000 nM in test [3].

As to `Cc1cc(-c2n[nH]c3cc4c(cc23)CN([C@@H]2CCN(CC(F)(F)F)C2)C(=O)N4)ccn1` [Example 214], the IC50 in test [1], in test [2] and in test [3] was at most 250 nM throughout.

Consider `Cc1cc(-c2n[nH]c3cc4[nH]c(=O)c(C(O)c5ccccc5)cc4cc23)ccn1` (stereo not drawn) [Example 221], for which the IC50 in test [1], in test [2] and in test [3] was 250 to 1000 nM in each case.

For `Cc1cc(-c2n[nH]c3cc4c(cc23)CN([C@@H]2CN(CC(F)(F)F)C[C@H]2c2ccccc2)C(=O)N4)ccn1` [Example 222], the IC50 in test [1] is at most 250 nM; in test [2], 250 to 1000 nM; in test [3], 250 to 1000 nM.
